Laboratory results published in the supplement of paper PMC10307832.

Columns and labels:
Assay in all cases: relative viability (nuclei count vs DMSO), 5 days (fraction); higher = more cells survive
Dovitinib + Luminespib = compound: CN1CCN(c2ccc3nc(-c4c(N)c5c(F)cccc5[nH]c4=O)[nH]c3c2)CC1 [Dovitinib] + CCNC(=O)c1noc(-c2cc(C(C)C)c(O)cc2O)c1-c1ccc(CN2CCOCC2)cc1 [Luminespib] (partner 0.01 µM)
Summary of the method: (§1)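 Relative viability equals treated-well nuclei counts divided by vehicle-well nuclei counts. Counts came from 4× images of lung cancer cell lines grown in 1536-well plates for 5 days after pin-tool dosing on the day after seeding. Dosing used one drug alone or a fixed anchor-drug dose plus five library-drug doses (not always all listed) in √10 steps, and values are medians of duplicate plates.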

Dovitinib + OSI-027 = compound: CN1CCN(c2ccc3nc(-c4c(N)c5c(F)cccc5[nH]c4=O)[nH]c3c2)CC1 [Dovitinib] + COc1cccc2cc(-c3nc([C@H]4CC[C@H](C(=O)O)CC4)n4ncnc(N)c34)[nH]c12 [OSI-027] (partner 0.5 µM)
Summary of the method: as §1

Dovitinib + Lapatinib = compound: CN1CCN(c2ccc3nc(-c4c(N)c5c(F)cccc5[nH]c4=O)[nH]c3c2)CC1 [Dovitinib] + CS(=O)(=O)CCNCc1ccc(-c2ccc3ncnc(Nc4ccc(OCc5cccc(F)c5)c(Cl)c4)c3c2)o1 [Lapatinib] (partner 2 µM)
Summary of the method: as §1

Dovitinib + Linsitinib = compound: CN1CCN(c2ccc3nc(-c4c(N)c5c(F)cccc5[nH]c4=O)[nH]c3c2)CC1 [Dovitinib] + C[C@]1(O)C[C@@H](c2nc(-c3ccc4ccc(-c5ccccc5)nc4c3)c3c(N)nccn32)C1 [Linsitinib] (partner 1 µM)
Summary of the method: as §1

Cell Line | relative viability (Dovitinib + Luminespib; first compound 0.02 µM) | relative viability (Dovitinib + Luminespib; first compound 0.06325 µM) | relative viability (Dovitinib + Luminespib; first compound 0.2 µM) | relative viability (Dovitinib + Luminespib; first compound 0.6325 µM) | relative viability (Dovitinib + Luminespib; first compound 2 µM) | relative viability (Dovitinib + OSI-027; first compound 0.02 µM) | relative viability (Dovitinib + OSI-027; first compound 0.06325 µM) | relative viability (Dovitinib + OSI-027; first compound 0.2 µM) | relative viability (Dovitinib + OSI-027; first compound 0.6325 µM) | relative viability (Dovitinib + OSI-027; first compound 2 µM) | relative viability (Dovitinib + Lapatinib; first compound 0.02 µM) | relative viability (Dovitinib + Lapatinib; first compound 0.06325 µM) | relative viability (Dovitinib + Lapatinib; first compound 0.2 µM) | relative viability (Dovitinib + Lapatinib; first compound 0.6325 µM) | relative viability (Dovitinib + Lapatinib; first compound 2 µM) | relative viability (Dovitinib + Linsitinib; first compound 0.02 µM) | relative viability (Dovitinib + Linsitinib; first compound 0.06325 µM) | relative viability (Dovitinib + Linsitinib; first compound 0.2 µM) | relative viability (Dovitinib + Linsitinib; first compound 0.6325 µM) | relative viability (Dovitinib + Linsitinib; first compound 2 µM)
H3255 | 0.943 | 0.9 | 0.956 | 0.932 | 0.923 | 0.637 | 0.601 | 0.627 | 0.716 | 0.585 | 0.217 | 0.266 | 0.288 | 0.266 | 0.255 | 1 | 0.937 | 1.01 | 1.02 | 1.02
EPLC-272H | 0.235 | 0.241 | 0.386 | 0.364 | 0.236 | 0.258 | 0.336 | 0.3 | 0.28 | 0.241 | 0.992 | 0.939 | 0.94 | 1.1 | 1.23 | 1.17 | 1.16 | 1.2 | 1.11 | 1.16
PC-3 [JPC-3] | 0.681 | 0.695 | 0.722 | 0.782 | 0.71 | 0.86 | 0.767 | 0.8 | 0.732 | 0.779 | 0.483 | 0.398 | 0.466 | 0.488 | 0.47 | 0.923 | 0.907 | 0.983 | 0.99 | 0.967
NCI-H1793 | 0.199 | 0.164 | 0.165 | 0.211 | 0.167 | 0.304 | 0.269 | 0.313 | 0.332 | 0.302 | 0.875 | 0.658 | 0.684 | 0.657 | 0.631 | 0.964 | 0.679 | 0.856 | 0.754 | 0.834
EKVX | 0.914 | 0.901 | 0.882 | 0.89 | 0.866 | 0.724 | 0.717 | 0.731 | 0.731 | 0.702 | 0.252 | 0.189 | 0.257 | 0.21 | 0.21 | 1.01 | 1.05 | 1 | 1.02 | 0.978
ChaGo-K-1 | 0.631 | 0.627 | 0.567 | 0.609 | 0.628 | 0.549 | 0.556 | 0.635 | 0.542 | 0.614 |  |  |  |  |  |  |  |  |  | 
NCI-H23 | 0.194 | 0.219 | 0.201 | 0.229 | 0.24 | 0.486 | 0.599 | 0.665 | 0.605 | 0.534 | 1.02 | 1.09 | 1.05 | 1.13 | 1.17 | 0.546 | 0.664 | 0.623 | 0.57 | 0.506
EMC-BAC-2 | 1.19 | 1.13 | 1.16 | 1.05 | 0.986 | 0.484 | 0.27 | 0.409 | 0.381 | 0.461 | 0.886 | 0.839 | 0.898 | 0.807 | 0.923 | 0.799 | 0.799 | 0.825 | 0.797 | 0.843
LOU-NH91 | 0.322 | 0.308 | 0.335 | 0.327 | 0.349 | 0.786 | 0.662 | 0.731 | 0.817 | 0.721 | 0.794 | 0.675 | 0.717 | 0.858 | 0.726 | 0.984 | 0.915 | 0.968 | 1 | 1.05
LU99A | 0.243 | 0.221 | 0.27 | 0.282 | 0.254 | 0.257 | 0.283 | 0.327 | 0.3 | 0.316 | 0.943 | 0.985 | 1.08 | 0.937 | 0.922 | 0.482 | 0.571 | 0.521 | 0.515 | 0.506
NCI-H1395 | 0.703 | 0.661 | 0.757 | 0.629 | 0.665 | 0.637 | 0.706 | 0.682 | 0.651 | 0.672 | 1.01 | 0.879 | 1.08 | 1.04 | 1.12 | 1.05 | 1.29 | 1.24 | 1.06 | 1.12
NCI-H460 | 0.0302 | 0.034 | 0.0441 | 0.0303 | 0.0426 | 0.587 | 0.842 | 0.708 | 0.708 | 0.721 | 0.913 | 1.05 | 1 | 0.878 | 1.03 | 0.758 | 0.904 | 0.834 | 0.74 | 0.777
201T | 0.924 | 1.04 | 1.02 | 1.09 | 1.01 | 0.704 | 0.747 | 0.748 | 0.898 | 0.724 | 0.95 | 0.993 |  | 1.01 | 0.968 | 0.988 | 0.944 |  | 0.945 | 0.995
NCI-H1944 | 0.643 | 0.773 | 0.757 | 0.704 | 0.715 | 0.426 | 0.383 | 0.398 | 0.39 | 0.431 | 0.84 | 0.809 | 0.893 | 0.7 | 0.818 | 1.14 | 1.18 | 1.15 | 1.22 | 1.18
NCI-H2405 | 0.657 | 0.579 | 0.7 | 0.58 | 0.817 | 0.627 | 0.594 | 0.591 | 0.656 | 0.692 | 1.1 | 0.946 | 1.04 | 1.09 | 1.35 | 0.954 | 0.873 | 0.971 | 0.873 | 1.05
NCI-H1703 |  |  |  |  |  |  |  |  |  |  | 1.17 | 0.955 | 0.788 | 0.784 | 0.42 | 0.853 | 0.868 | 0.671 | 0.533 | 0.403
NCI-H1755 | 0.41 | 0.305 | 0.417 | 0.54 | 0.508 | 0.744 | 0.732 | 0.759 | 0.714 | 0.712 | 1.08 | 1.07 | 1.02 | 1.05 | 0.976 | 0.968 | 0.976 | 0.94 | 1.01 | 0.998
